The values below come from US20130217721A1, “COMPOSITIONS AND METHODS FOR DETECTION AND TREATMENT OF B-RAF INHIBITOR-RESISTANT MELANOMAS” (The Regents of the University of California, priority 2010, published 2013).

Experiment [1] concerns M229, M238 and M249 parental cell lines. Particulars: B-RAF(V600E)-positive parental cell lines, in vitro and in vivo; cited from earlier work.
In experiment [2] the test system is M249 R sub-line (M249 R4). Description: Cell survival / proliferation assay (72 h). The experiment is classed as cell-based, human. The conditions noted are these: M249 R sub-lines. The protocol:
(§1) Cells were maintained in Dulbecco's modified Eagle medium (DMEM) with 10 or 20% fetal bovine serum and glutamine. shRNAs were sub-cloned into the lentiviral vector pLL3.7 and infections carried out with protamine sulphate. Stocks of PLX4032 (Plexxikon) and AZD6244 (commercially available) were made in DMSO. Cells were quantified using CellTiter-GLO Luminescence (Promega).
(§2) Cell proliferation experiments were performed in a 96-well format (five replicates), and baseline quantification performed at 24 h after cell seeding along with initiation of drug treatments (72 h). Stocks and dilutions of PLX4032 (Plexxikon), AZD6244 (Selleck Chemicals) and U0126 (Promega) were made in DMSO. siRNA pool (Dharmacon) transfections were carried out in 384-well format. TransIT transfection reagent (Mirus) was added to each well and incubated at 37° C. for 20 min. Subsequently, cells were reverse transfected, and the mixture was incubated for 51-61 h at 37° C. Cells were quantified using CellTiter 96 Aqueous One Solution (Promega) or CellTiter-GLO Luminescence (Promega) following the manufacturer's recommendations.
Cell culture, infections and drug treatments. Cells were maintained in DMEM with 10 or 20% fetal bovine serum and glutamine. shRNAs for B-RAF and C-RAF were sub-cloned into the lentiviral vector pLL3.7; pBabe B-RAF (V600E) was purchase (plasmid 17544, Addgene); viral supernatants generated by co-transfection with three packaging plasm ids into HEK293T cells; and infections carried out with protamine sulfate. Stocks and dilutions of PLX4032 (Plexxikon, Berkeley, Calif.) and AZD6244 (commercially available) were made in DMSO. Cells were quantified using CellTiter-GLO Luminescence (Promega) or crystal violet staining followed by NIH Image J quantification.

The next experiment concerns the target BRAF(V600E/R509H) (Homo sapiens, UniProt P15056, R509H/V600E). The experiment can be described thus: ERK signaling in 293H cells expressing BRAF(V600E/R509H). The experiment is classed as cell-based. The conditions noted are these: 2 μM PLX4032 for 1 hour. An excerpt:
FIGS. 6A-6E. […] FIG. 6A. PCR analysis of BRAF in cDNA from parental (P) and C3 cells. Primers were designed at the N-terminus and C-terminus of BRAF. […] Abbreviations: CR1: Conserved Region 1, CR2: Conserved Region 2, CR3: Conserved Region 3, RBD: RAS-binding domain, CRD: Cystine-Rich Domain, AS: Activation Segment, KD: Kinase Domain. FIG. 6B. Full length wild-type BRAF and the 1.7 kb/61 kd splice variant of BRAF(V600E) were cloned into a pcDNA3.1 vector with a FLAG tag at the C-terminus and expressed in 293H cells. The effect of PLX4032 (2 μM for 1 hour) on ERK signaling in the presence of p61 BRAF(V600E) was analyzed by western blot for pMEK and pERK. FIG. 6C. To compare levels of dimerization, 293H cells co-expressing FLAG tagged and V5-tagged p61 BRAF(V600E), full length BRAF(V600E) and the corresponding dimerization-deficient mutants p61 BRAF(V600E/R509H) and BRAF(V600E/R509H) were lysed followed by immunoprecipitation with FLAG antibody. Western blots with V5 or FLAG antibodies were performed as indicated. FIG. 6D. Comparison of MEK/ERK activation and sensitivity of ERK signaling to PLX4032 (2 μM for 1 hour) in 293H cells expressing either Flag-tagged BRAF(V600E) or the dimerization mutant Flag-tagged BRAF(V600E/R509H). FIG. 6E. […]

The next experiment has as its system SKMEL-239. Description: Cell cycle and apoptosis analysis. Particulars: SKMEL-239 parental, 2 μM PLX4032. It is filed as cell-based, human. The protocol:
Cell proliferation and cell cycle analysis. All melanoma cell lines were generated by A. Houghton (MSKCC) or obtained from ATCC. 293H cells were obtained from Invitrogen. Cells were maintained in DMEM (293H and MEFs), or RPMI (all other cell lines) supplemented with 2 mM glutamine, antibiotics and 10% fetal bovine serum. We confirmed by DNA fingerprinting^20 that all PLX4032-resistant, SKMEL-239 clones were derived from the same patient, thus excluding the possibility of contamination (Table 6). For proliferation assays, cells were plated in 6 well plates and 24 hours later were treated with varying concentrations of inhibitors as indicated. IC50 values were calculated using Graph Pad Prism v.5. For cell cycle and apoptosis studies, cells were seeded in 6 well dishes the day prior to drug treatment. For analysis, both adherent and floating cells were harvested and stained with ethidium bromide as described previously^21.

Experiment [3] deals with M238 R sub-lines (M238 R1). Description: Cell survival / proliferation assay (72 h). It is filed as cell-based, human. Particulars: M238 R sub-lines. Here is the method: as §1, §2
Experiment [4] deals with M229 R sub-lines (M229 R5). Description: Cell survival / proliferation assay (72 h). It is filed as cell-based, human. Particulars: M229 R sub-lines. The protocol: as §1, §2
Experiment [5] relates to Pt55 R short-term culture. The experiment can be described thus: Cell survival / proliferation assay (72 h). It is filed as cell-based, human. Here is the method: as §1, §2
Experiment [6] has as its system Pt48 R short-term culture. Description: Cell survival / proliferation assay (72 h). The experiment is classed as cell-based, human. Here is the method: as §1, §2
The next experiment concerns pERK levels in M395 R. The experiment can be described thus: Western blot of pERK after acute vemurafenib titration. Particulars: vemurafenib titration 1 h after a 24 h drug withdrawal. The experiment is classed as cell-based, human. A general note: A western blot detects proteins with antibodies after separation by electrophoresis.
The test system of the next experiment is melanoma. The experiment can be described thus: PLX4032 clinical trial patients: best overall response and progression free survival (Table 2). Particulars: individual PLX4032 clinical trial patient. It is filed as in vivo, human.
Setting [7] is: Homo sapiens, not reached up to 10 μM, read-out: GI50, concentration of drug that inhibits growth of cells by 50%.

Values joined by “and” are separate entries in the source; they are usually repeats but may differ in a detail not shown here. Identical values can stand only once.

Sequence of BRAF(V600E/R509H) (P15056 whole entry R509H/V600E, the tested form may be a part, canonical isoform): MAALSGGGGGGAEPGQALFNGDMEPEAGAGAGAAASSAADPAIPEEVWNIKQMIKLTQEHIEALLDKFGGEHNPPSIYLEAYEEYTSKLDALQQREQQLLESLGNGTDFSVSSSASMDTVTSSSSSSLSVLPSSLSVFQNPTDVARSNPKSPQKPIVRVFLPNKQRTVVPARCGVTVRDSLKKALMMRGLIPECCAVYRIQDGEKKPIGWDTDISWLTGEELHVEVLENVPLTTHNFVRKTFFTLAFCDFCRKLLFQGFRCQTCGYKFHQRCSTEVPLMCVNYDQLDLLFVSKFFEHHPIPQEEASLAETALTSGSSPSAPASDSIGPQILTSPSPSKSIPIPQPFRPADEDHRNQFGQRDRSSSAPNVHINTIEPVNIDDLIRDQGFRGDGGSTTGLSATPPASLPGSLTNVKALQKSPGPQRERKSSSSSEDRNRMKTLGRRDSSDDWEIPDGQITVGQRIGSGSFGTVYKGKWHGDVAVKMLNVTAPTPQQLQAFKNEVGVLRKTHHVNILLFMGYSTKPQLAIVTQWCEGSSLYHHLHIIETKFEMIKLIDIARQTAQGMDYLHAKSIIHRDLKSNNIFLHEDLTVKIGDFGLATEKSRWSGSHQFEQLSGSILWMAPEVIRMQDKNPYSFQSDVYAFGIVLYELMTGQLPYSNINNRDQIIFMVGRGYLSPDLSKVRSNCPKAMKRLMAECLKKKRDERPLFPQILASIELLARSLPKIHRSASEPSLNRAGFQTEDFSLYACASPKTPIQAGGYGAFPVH

For the molecule `CCCS(=O)(=O)Nc1ccc(F)c(C(=O)c2c[nH]c3ncc(-c4ccc(Cl)cc4)cc23)c1F` [PLX4032], the “sensitivity to PLX4032-mediated growth inhibition” value in [1] is on record as “exquisitely sensitive”. The GI50 in [2] (setting [7]), in experiment [3] (setting [7]) and in [4] (setting [7]) was more than 10 µM each time. Also, the “growth at low PLX4032 concentrations” value in [2] (in contrast to parental cells), in experiment [3] (in contrast to parental cells) and in experiment [4] (in contrast to parental cells) was “paradoxically enhanced growth” in each case. At BRAF(V600E/R509H), the “sensitivity of ERK signaling” value is reported as “remained sensitive”. For the same molecule, the cell cycle effect entry in the experiment with SKMEL-239 is “accumulation of cells in G1”. Also, the cell death result in the experiment with SKMEL-239 is recorded as “significant induction of cell death”. The “growth resistance to B-RAF inhibitor” value in [5] and in [6] was “resistance” each time. Moreover, in the experiment on pERK levels in M395 R, the “pERK levels, sensitivity to acute V600EB-RAF inhibition” value is recorded as “highly resistant”. In addition, in the experiment on melanoma, the Best overall response was 83% and 14% and 37% and 53% (2×) and 73% and 84% and 32% and 42% and 24% and 57% and 75%. For the same molecule, the “Progression free survival” value in the experiment with melanoma is 161 days and 113 days (2×) and 270 days and 106 days and 141 days and 149 days and 137 days and 126 days (2×) and 466 days and 84 days.
